A short description of data set [1]: retention time on BEH HILIC column (20 min gradient, 0.4 mL/min); higher = later elution. The following applies: LC: HILIC. How it is done:
(§1)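 Reference standards (20-100 uM) were separated by HILIC UPLC (BEH HILIC, 45 °C): acidic pH 3.0 ammonium formate/formic acid for ESI+ and basic pH 9.0 ammonium acetate/ammonia for ESI-. They were analysed on a Synapt G2-Si traveling-wave IMS-QTOF with nitrogen drift gas (WH 30 V; WV 800 m/s in ESI+ and 1000 m/s in ESI-).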

Data set [2] is described as follows: collision cross section (TWIMS, N2) of ion [M-H]-; higher = larger gas-phase ion cross section. Particulars: ionization: ESI negative; LC: HILIC, pH 9.0 ammonium acetate. How it is done:
as §1

A short description of data set [3]: collision cross section (TWIMS, N2) of ion [M+H]+; higher = larger gas-phase ion cross section. The following applies: ionization: ESI positive; LC: HILIC, pH 3.0 ammonium formate. As to the method:
as §1

The mark [4] stands for this setting: ionization: ESI negative, pH 9.0 ammonium acetate.
Setting [5] is: ionization: ESI positive, pH 3.0 ammonium formate.

SMILES strings stand for the structures.

Regarding `O=C(O)c1cc(=O)c2ccccc2[nH]1` [Kynurenic acid], the “retention time on BEH HILIC column” value in data set [1] (setting [4]) was found to be 4.13 min; in data set [1] (setting [5]), 4.01 min. Moreover, the collision cross section in data set [2] was found to be 134.49 Å²; in data set [3], 135.88 Å².
As to `C[N+](C)(C)C[C@H](O)CC(=O)O` [L-carnitine], the “retention time on BEH HILIC column” value in data set [1] (setting [5]) was found to be 8.64 min. The compound also showed a collision cross section in data set [3] of 137.38 Å².
Take `CC(C)[C@H](N)C(=O)O` [L-valine]: the “retention time on BEH HILIC column” value was 6.85 min in data set [1] (setting [4]) and 6.79 min in data set [1] (setting [5]). Besides, the figures for the collision cross section in data set [2] and in data set [3] were 126.43 Å² and 123.49 Å², respectively.
For `O=C(O)C[C@H](O)C(=O)O` [Malic acid], the “retention time on BEH HILIC column” value in data set [1] (setting [4]) is 13 min. Also, the collision cross section in data set [2] amounted to 118.53 Å².
Take `O=C(O)CC(O)(CC(=O)O)C(=O)O` [Citric acid]: in data set [1] (setting [4]), the “retention time on BEH HILIC column” value came out at 11.1 min. The collision cross section in data set [2] is listed as 128.76 Å².
For `Cc1c(C)c2c(c(C)c1O)CC[C@@](C)(CCC[C@H](C)CCC[C@H](C)CCCC(C)C)O2` [a-tocopherol], the “retention time on BEH HILIC column” value in data set [1] (setting [4]) and in data set [1] (setting [5]) was 0.73 min each time. The results for the collision cross section in data set [2] and in data set [3] were 212.59 Å² and 216.53 Å², respectively.
With `N[C@@H](Cc1cnc[nH]1)C(=O)O` [L-histidine], the “retention time on BEH HILIC column” value in data set [1] (setting [4]) was 12.7 min; in data set [1] (setting [5]) it was 12.6 min. Moreover, the figures for the collision cross section in data set [2] and in data set [3] were 129.28 Å² and 131.08 Å², respectively.
For the compound `O=P(O)(O)OC[C@H]1O[C@H](O)[C@H](O)[C@@H]1O` [D-ribose 5-phosphate], the “retention time on BEH HILIC column” value in data set [1] (setting [4]) stood at 9.22 min. For the same compound, the collision cross section in data set [2] was determined as 139.6 Å².
For the compound `N[C@@H](CSSC[C@H](N)C(=O)O)C(=O)O` [L-cystine], the “retention time on BEH HILIC column” value in data set [1] (setting [4]) is 12 min; in data set [1] (setting [5]), 11.4 min. Further, the collision cross section in data set [2] stood at 143.16 Å²; in data set [3], 146.43 Å².
Turning to `CC[C@H](C)C(=O)C(=O)O` [3-methyl-2-oxopentanoic acid], in data set [1] (setting [4]), the “retention time on BEH HILIC column” value came to 1.93 min. This compound also displayed a collision cross section in data set [2] of 126.71 Å².
Turning to `Nc1ncnc2c1ncn2[C@@H]1O[C@H](CO)[C@@H](O)[C@H]1O` [Adenosine], the “retention time on BEH HILIC column” value in data set [1] (setting [4]) came out at 2.36 min; in data set [1] (setting [5]) it was 2.24 min. The collision cross section turned out to be 155.95 Å² in data set [2] and 155.89 Å² in data set [3].
For the compound `O=C(O)CCC(=O)C(=O)O` [a-ketoglutaric acid], the “retention time on BEH HILIC column” value in data set [1] (setting [4]) came out at 5.51 min. In data set [2], this compound showed a collision cross section of 122.3 Å².
With `NC(=O)NCCC[C@H](N)C(=O)O` [Citrulline], the “retention time on BEH HILIC column” value stood at 9.07 min in data set [1] (setting [4]) and 8.89 min in data set [1] (setting [5]). The collision cross section is recorded as 135.18 Å² in data set [2] and 137.33 Å² in data set [3].
`NCCCNCCCCNCCCN` [Spermine]: in data set [1] (setting [5]), the “retention time on BEH HILIC column” value was 13.9 min. For the same compound, the collision cross section in data set [3] is on record as 150.86 Å².
For `NCCc1ccc(O)c(O)c1` [Dopamine], the “retention time on BEH HILIC column” value in data set [1] (setting [4]) stood at 4.35 min; in data set [1] (setting [5]), 4.6 min. In addition, the collision cross section in data set [2] was determined as 130.85 Å²; in data set [3], 139.55 Å².
Regarding `CC[C@H](O)C(=O)O` [2-hydroxybutyric acid], the “retention time on BEH HILIC column” value in data set [1] (setting [4]) was 1.95 min. For the same compound, in data set [2], the collision cross section worked out at 119.98 Å².
For `O=P(O)(O)O[C@H]1O[C@H](CO)[C@H](O)[C@H](O)[C@H]1O` [Galactose 1-phosphate], in that order: 11.8 min and 147.62 Å².
Regarding `NCCCCNCCCN` [Spermidine], the “retention time on BEH HILIC column” value in data set [1] (setting [5]) was 12.7 min. The collision cross section in data set [3] is on record as 135.15 Å².
Turning to `CCCC(=O)O` [Butyric acid], in data set [1] (setting [4]), the “retention time on BEH HILIC column” value worked out at 3.72 min. In data set [2], the collision cross section is 122.31 Å².
On the same counts, the results for `CCCCCCCC(=O)O` [Caprylic acid] are 0.77 min and 141.36 Å².
`N[C@@H](CO)C(=O)O` [L-serine]: the “retention time on BEH HILIC column” value in data set [1] (setting [4]) came out at 7.75 min. Besides, the collision cross section in data set [2] worked out at 118.21 Å².

(Values after the supplement of paper PMC11127212.)
